Test results from US12419305B2, “Antimicrobial compositions” (Firmenich SA, priority 2018, dated 2025).

Key:
E. coli ATCC 10536 = assay: BCT test (bacterial contact time), 45 s, log reduction / effect fraction; CI by Compusyn; type: cell-based, Escherichia coli
In short: (§1)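 Read-out: log CFU from turbidity (OD600) of serially diluted wells after 37° C, 180 rpm growth; log reduction relative to ethanol-only control. Cells at ~1×10^8/mL met ethanolic test compositions 1:1 for the listed contact time. CI from concentrations and effect fractions; <0.9 synergy, 0.9–1.0 additive, >1.0 antagonism.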

S. aureus ATCC 6538 = assay: BCT test (bacterial contact time), 60 s, log reduction / effect fraction; CI by Compusyn; type: cell-based, Staphylococcus aureus; conditions: Staphylococcus aureus, ATCC6538, 1 min, 60 s, in 25% EtOH; for log reduction at 0.1 % strength: dose 0.100 % w/v
In short: as §1

S. haemolyticus 114126 = assay: BCT test (bacterial contact time), 120 s, log reduction / effect fraction; CI by Compusyn; type: cell-based; conditions: Staphylococcus haemolyticus, 114126, 2 min, contact 120 s, 25% EtOH; for log reduction at 0.1 % strength: dose 0.1% w/v; for log reduction at 0.125 % strength: dose 0.125% w/v; for log reduction at 0.15 % strength: dose 0.15% w/v
In short: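 S. haemolyticus 114126 (skin isolate), grown to OD600 1-2 in BHI-TW80 and resuspended at 1-5×10^8 CFU/mL, was mixed 1:1 with ethanolic perfume compositions or ethanol alone for 45, 60 or 120 s. Viable counts came from serial-dilution regrowth (37 °C, turbidity OD600), giving log reduction versus ethanol control; CI was computed from concentration–effect fraction pairs.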

[1] = system: Salmonella enterica ATCC 10708; assay: BCT test (bacterial contact time), 60 s, log reduction / effect fraction; CI by Compusyn; type: cell-based; conditions: Salmonella enterica, ATCC10708, 1 min, BCT 60 s, in 25% EtOH; for log reduction at 0.04 % strength: Dose 0.04 % w/v; for log reduction at 0.05 % strength: Dose 0.05 % w/v, read-out: Log reduction
In short: as §1

[2] = system: Pseudomonas aeruginosa ATCC 15442; assay: as above; type: cell-based; conditions: Pseudomonas aeruginosa, ATCC15442, 1 min, BCT 60 s, in 25% EtOH; for log reduction at 0.05 % strength: Dose 0.05 % w/v
In short: as §1

Compound `CCCCCCC1CCC(=O)O1` (stereo not shown) [Decal] has a log reduction at 0.05 % strength (E. coli ATCC 10536; Escherichia coli, ATCC10536, 45 s, dose 0.050 % w/v, 45 s, in 20% EtOH) of 0.1, a log reduction at 0.05 % strength (E. coli ATCC 10536; Escherichia coli, ATCC10536, 45 s, dose 0.05% w/v, contact 45 s, 20% EtOH) of 0 and a log reduction at 0.06 % strength (E. coli ATCC 10536; Escherichia coli, ATCC10536, 45 s, dose 0.060 % w/v, 45 s, in 20% EtOH) of 0.7. For the same compound, the log reduction at 0.06 % strength (E. coli ATCC 10536; Escherichia coli, ATCC10536, 45 s, dose 0.06% w/v, contact 45 s, 20% EtOH) was 0.9, the log reduction at 0.07 % strength (E. coli ATCC 10536; Escherichia coli, ATCC10536, 45 s, dose 0.070 % w/v, 45 s, in 20% EtOH) was 2.4 and the log reduction at 0.07 % strength (E. coli ATCC 10536; Escherichia coli, ATCC10536, 45 s, dose 0.07% w/v, contact 45 s, 20% EtOH) was 2.8. For the same compound, the log reduction at 0.08 % strength (E. coli ATCC 10536; Escherichia coli, ATCC10536, 45 s, dose 0.080 % w/v, 45 s, in 20% EtOH) was 6.4, the log reduction at 0.08 % strength (E. coli ATCC 10536; Escherichia coli, ATCC10536, 45 s, dose 0.08% w/v, contact 45 s, 20% EtOH) was 6.1 and the log reduction at 0.09 % strength (E. coli ATCC 10536; Escherichia coli, ATCC10536, 45 s, dose 0.090 % w/v, 45 s, in 20% EtOH) was 7.1. The log reduction at 0.09 % strength (E. coli ATCC 10536; Escherichia coli, ATCC10536, 45 s, dose 0.09% w/v, contact 45 s, 20% EtOH) was 7.3, the Log reduction (E. coli ATCC 10536; dose 0.050 % w/v, 45 s, in 20% EtOH) was 0.1 and the log reduction at 0.08 % strength (S. aureus ATCC 6538; dose 0.080 % w/v) was 2.4. For the same compound, the log reduction at 0.1 % strength (S. aureus ATCC 6538) was 5, the log reduction at 0.12 % strength (S. aureus ATCC 6538; dose 0.120 % w/v) was 6.6 and the log reduction at 0.16 % strength (S. aureus ATCC 6538; dose 0.160 % w/v) was 7.2. The log reduction at 0.2 % strength (S. aureus ATCC 6538; dose 0.200 % w/v, read-out: Log reduction) was 7, the log reduction at 0.1 % strength (S. haemolyticus 114126) was 0.5 and the log reduction at 0.125 % strength (S. haemolyticus 114126) was 0.7. It also gave a log reduction at 0.15 % strength (S. haemolyticus 114126) of 1.2, a log reduction at 0.175 % strength (S. haemolyticus 114126; dose 0.175% w/v, read-out: Log reduction) of 3.2 and a log reduction at 0.2 % strength (S. haemolyticus 114126; dose 0.2% w/v) of 4.5. For the same compound, the log reduction at 0.04 % strength [1] was 0.3, the log reduction at 0.05 % strength [1] was 0.7 and the log reduction at 0.06 % strength ([1]; Dose 0.06 % w/v) was 1.3. The log reduction at 0.07 % strength ([1]; Dose 0.07 % w/v) was 2.2, the log reduction at 0.08 % strength ([1]; Dose 0.080 % w/v) was 5.8 and the log reduction at 0.05 % strength [2] was 1.3. It also gave a log reduction at 0.055 % strength ([2]; Dose 0.055 % w/v) of 2.7, a log reduction at 0.06 % strength ([2]; Dose 0.06 % w/v) of 2.8 and a log reduction at 0.065 % strength ([2]; Dose 0.065 % w/v) of 4.7. For the same compound, the log reduction at 0.07 % strength ([2]; Dose 0.07 % w/v) was 5.2.

In the case of `CCC(C)(O)CCCC(C)C` (stereo not shown) [Tetralinol, 3,7-Dimethyl-3-octanol], the log reduction at 0.02 % strength (E. coli ATCC 10536; Escherichia coli, ATCC10536, 45 s, dose 0.02 % w/v, 45 s, in 20% EtOH) is reported as 0.1, the log reduction at 0.025 % strength (E. coli ATCC 10536; Escherichia coli, ATCC10536, 45 s, dose 0.025 % w/v, 45 s, in 20% EtOH) is reported as 0.6 and the log reduction at 0.025 % strength (E. coli ATCC 10536; Escherichia coli, ATCC10536, 45 s, dose 0.025% w/v, contact 45 s, 20% EtOH) is reported as 0.7. The log reduction at 0.03 % strength (E. coli ATCC 10536; Escherichia coli, ATCC10536, 45 s, dose 0.030 % w/v, 45 s, in 20% EtOH) was 1.4, the log reduction at 0.03 % strength (E. coli ATCC 10536; Escherichia coli, ATCC10536, 45 s, dose 0.03% w/v, contact 45 s, 20% EtOH) was 2 and the log reduction at 0.035 % strength (E. coli ATCC 10536; Escherichia coli, ATCC10536, 45 s, dose 0.035 % w/v, 45 s, in 20% EtOH) was 5. The log reduction at 0.035 % strength (E. coli ATCC 10536; Escherichia coli, ATCC10536, 45 s, dose 0.035% w/v, contact 45 s, 20% EtOH) was 5.9, the log reduction at 0.04 % strength (E. coli ATCC 10536; Escherichia coli, ATCC10536, 45 s, dose 0.04% w/v, contact 45 s, 20% EtOH) was 7 and the Log reduction (E. coli ATCC 10536; dose 0.025 % w/v, 45 s, in 20% EtOH) was 0.6. For the same compound, the log reduction at 0.0375 % strength (S. aureus ATCC 6538; dose 0.0375 % w/v) was 1.3, the log reduction at 0.05 % strength (S. aureus ATCC 6538; dose 0.050 % w/v) was 5.5 and the log reduction at 0.075 % strength (S. aureus ATCC 6538; dose 0.075 % w/v) was 7.3. For the same compound, the log reduction at 0.1 % strength (S. aureus ATCC 6538) was 7.5, the log reduction at 0.075 % strength (S. haemolyticus 114126; dose 0.075% w/v) was 1.2 and the log reduction at 0.1 % strength (S. haemolyticus 114126) was 5. It also gave a log reduction at 0.125 % strength (S. haemolyticus 114126) of 7.3, a log reduction at 0.15 % strength (S. haemolyticus 114126) of 7.1 and a log reduction at 0.04 % strength [1] of 5.3. For the same compound, the log reduction at 0.05 % strength [1] was 6.2, the log reduction at 0.025 % strength ([2]; Dose 0.025 % w/v) was 1.2 and the log reduction at 0.05 % strength [2] was 3.2. It also gave a log reduction at 0.075 % strength ([2]; Dose 0.075 % w/v) of 3.9, a log reduction at 0.1 % strength ([2]; Dose 0.1 % w/v) of 7.1 and a log reduction at 0.125 % strength ([2]; Dose 0.125 % w/v) of 7.1.
